According to patent EP1505089B1, “Cationic (alkyl)acrylamide derivative, polymer based on these derivates, and transfection system comprising said polymer” (OctoPlus Technologies B.V., priority 2003, dated 2005):

Assay: Degradation of the monomer followed with RP-HPLC
Type: physicochemical
Settings: 37 °C
Protocol: Degradation of the monomer was followed with RP-HPLC at 37 °C. The relative peak areas of the monomer and its degradation product HPMA as a function of time are depicted in figure 1(A) for pH 10, 1(B) for pH 7.4 and 1(C) for pH 5.0.

C=C(C)C(=O)NCC(C)OC(=O)OCCN(C)C (stereo not drawn) [HPMA-DMAE]
half-life of the monomer (pH 5.0, RP-HPLC): 380 h
half-life of the monomer (pH 7.4, RP-HPLC): 9.6 h
half-life of the monomer (pH 10, RP-HPLC): 1.1 h
